Measured values taken from PMC7155171, “Probing the Open Global Health Chemical Diversity Library for Multistage-Active Starting Points for Next-Generation Antimalarials” (ACS Infectious Diseases, 2020).
Where two headings read alike, the source gives them in different places.

What was measured:
P. falciparum Dd2 = assay: SYBR green I asexual blood stage proliferation assay (96 h); assay type: cell-based, Plasmodium falciparum; conditions: Plasmodium falciparum
[1] = test system: P. falciparum Dd2 (PfLuc) line expressing firefly luciferase, asexual blood stage; assay: microbe, parasite or virus in culture; assay type: cell-based, Plasmodium falciparum; conditions: Plasmodium falciparum
[2] = DD2, Sybr Green I, 11-pt dose response, 96hr, read-out: CDD P. falciparum Sybr Green I ABS 11-pt Reconfirmation Dose Response (96hr): IC50
[3] = DD2, Sybr Green I, 11-pt dose response, 96hr, read-out: CDD P. falciparum Sybr Green I ABS 11-pt Reconfirmation Dose Response (96hr): Maximum inhibition (%)
[4] = DD2, read-out: CDD P. falciparum Luciferase ABS 11-pt Reconfirmation Dose Response (48hr): IC50 (μM), 11-pt dose response, 48hr
[5] = DD2, 8-pt dose response, 96hr, read-out: CDD P. falciparum Luciferase ABS 8-pt Reconfirmation Dose Response (96hr): IC50
[6] = DD2, 8-pt dose response, 96hr, read-out: CDD P. falciparum Luciferase ABS 8-pt Reconfirmation Dose Response (96hr): Maximum inhibition (%)
[7] = DD2, 11-pt dose response, 48hr, read-out: CDD P. falciparum Luciferase ABS 11-pt Reconfirmation Dose Response (48hr): Maximum inhibition (%)
[8] = DD2, 11-pt dose response, 96hr, read-out: CDD P. falciparum Luciferase ABS 11-pt Reconfirmation Dose Response (96hr): IC50
[9] = DD2, 11-pt dose response, 96hr, read-out: CDD P. falciparum Luciferase ABS 11-pt Reconfirmation Dose Response (96hr): Maximum inhibition (%)
[10] = DD2, 11-pt dose response, 96hr, read-out: P. falciparum Sybr Green I ABS 11-pt Reconfirmation Dose Response (96hr): IC50
[11] = DD2, 11-pt dose response, 96hr, read-out: P. falciparum Sybr Green I ABS 11-pt Reconfirmation Dose Response (96hr): Maximum inhibition (%)
[12] = DD2, read-out: P. falciparum Luciferase ABS 11-pt Reconfirmation Dose Response (48hr): IC50, 11-pt dose response, 48hr
[13] = DD2, 8-pt dose response, 96hr, read-out: P. falciparum Luciferase ABS 8-pt Reconfirmation Dose Response (96hr): IC50
[14] = DD2, 8-pt dose response, 96hr, read-out: P. falciparum Luciferase ABS 8-pt Reconfirmation Dose Response (96hr): Maximum inhibition (%)
[15] = DD2, 11-pt dose response, 48hr, read-out: P. falciparum Luciferase ABS 11-pt Reconfirmation Dose Response (48hr): Maximum inhibition (%)
[16] = DD2, 11-pt dose response, 96hr, read-out: P. falciparum Luciferase ABS 11-pt Reconfirmation Dose Response (96hr): IC50
[17] = DD2, 11-pt dose response, 96hr, read-out: P. falciparum Luciferase ABS 11-pt Reconfirmation Dose Response (96hr): Maximum inhibition (%)

IC50 (P. falciparum Dd2; 96 h, Dd2, read-out: 96 h SYBR green ABS IC50) | SMILES | IC50 (P. falciparum Dd2; [2]) | Emax (P. falciparum Dd2; [3]) | IC50 [1, 4] | IC50 [1, 5] | Emax [1, 6] | Emax [1, 7] | IC50 [1, 8] | Emax [1, 9] | IC50 (P. falciparum Dd2; [10]) | Emax (P. falciparum Dd2; [11]) | IC50 [1, 12] | IC50 [1, 13] | Emax [1, 14] | Emax [1, 15] | IC50 [1, 16] | Emax [1, 17]
 | NC1CCc2nc(-c3cccnc3)nc(Nc3ccc(F)cc3)c2C1 (centres unmarked) [DDD01057099] | 1.31 µM | 100% | 3.56 µM | 0.24 µM | 96.1% | 98.4% | 0.99 µM | 100% |  |  |  |  |  |  |  | 
 | CC(C)c1n[nH]c(C(=O)Nc2ccccn2)c1Br [DDD01298780] | 4.27 µM | 51.4% | 4.01 µM | 0.53 µM | 92.3% | 87.6% | 3.99 µM | 95.1% |  |  |  |  |  |  |  | 
 | Cc1cc(N2CCC(NC(C)Cc3ccsc3)CC2)nc(C)n1 (centres unmarked) [DDD01076128] |  |  |  |  |  |  |  |  | 7.78 µM | 72.7% | 2.25 µM | 1.19 µM | 89.6% | 81.4% | 1.09 µM | 96.6%
 | Cc1cccc(OC(C)C(=O)NCC2(N(C)C)CCCC2)c1 (centres unmarked) [DDD01069466] | 2.14 µM | 64.8% | > 12.5 µM | 0.95 µM |  | 46.7% | 2.5 µM | 85.7% |  |  |  |  |  |  |  | 
 | CN1CCC(C2CCN(Cc3cccc(-n4cccn4)c3)CC2)C1 (centres unmarked) [DDD01255349] | 2.05 µM | 94.8% | 0.818 µM | 0.65 µM | 93.2% | 97.1% | 0.46 µM | 100% |  |  |  |  |  |  |  | 
 | COc1cccc(CNC(CN2CCN(C)CC2)c2ccccc2)c1 (centres unmarked) [DDD01079897] | 1.65 µM | 94.5% | 2.58 µM | 0.38 µM | 91% | 83.2% | 0.79 µM | 98.1% |  |  |  |  |  |  |  | 
 | CN1CCC2(CCCN(c3nccc(C(F)(F)F)n3)C2)CC1 [DDD01028783] | 8.82 µM | 74% | > 12.5 µM | 0.75 µM | 87.2% | 60.6% | 3.57 µM | 84.9% |  |  |  |  |  |  |  | 
 | Cc1cc(NC(=O)NC2CCN(C(C)C)CC2)c2ncccc2c1 [DDD01076635] |  |  |  |  |  |  |  |  | 5.3 µM | 53.2% | > 12.5 µM | 2.21 µM |  | 47.1% | 5.47 µM | 86.3%
 | CN1CCC(O)(CNCc2ccc(F)c(C(F)(F)F)c2)CC1 [DDD01065665] | 3.17 µM | 86.1% | > 12.5 µM | 0.71 µM | 90.5% | 33.7% | 4.45 µM | 88.8% |  |  |  |  |  |  |  | 
 | Cc1ccccc1N1CCCN(CC2(O)CCCNC2)CC1 (centres unmarked) [DDD01254676] | 1.59 µM | 91.2% | 3.64 µM | 0.54 µM | 90.4% | 89.1% | 1.37 µM | 97.2% |  |  |  |  |  |  |  | 
 | NC1(C(=O)NCC2CCCN(Cc3ccccc3F)C2)CCCC1 (centres unmarked) [DDD01249015] | > 4.16 µM | 77.3% | > 12.5 µM | 0.62 µM | 89.1% | 55.5% | 1.47 µM | 87.8% |  |  |  |  |  |  |  | 
 | Clc1cccc(C[C@@H]2NCCC[C@@H]2Nc2ccccc2)c1 [DDD01058682] |  |  |  |  |  |  |  |  | 3.39 µM | 93.6% | 1.83 µM | 1.21 µM | 94.7% | 99.1% | 0.857 µM | 101%
 | Oc1cccc2ccc(CN3CCC4(CCNCC4)C3)nc12 [DDD01243747] | 10.8 µM | 75.2% | 0.642 µM | 0.76 µM | 92% | 97.9% | 0.231 µM | 101% |  |  |  |  |  |  |  | 
> 10 µM | CCC[C@@H]1C[C@@H](C(=O)N[C@@H]([C@H]2O[C@H](SC)[C@H](O)[C@@H](O)[C@H]2O)[C@H](C)Cl)N(C)C1 [clindamycin, reference compound] |  |  |  |  |  |  |  |  |  |  |  |  |  |  |  | 
 | CN(C(=O)c1ccon1)[C@@H]1CCC[C@@H](Oc2ccccc2)[C@@H]1O [DDD01059734] |  |  |  |  |  |  |  |  |  |  |  | 1.12 µM | 85.7% |  |  | 
 | CCC1CN(C(=O)c2ccc(Cl)cc2O)CCN1C(C)C (centres unmarked) [DDD01258121] |  |  |  |  |  |  |  |  |  |  |  | 2.57 µM | 80.5% |  |  | 
